One data set has as its system apoptosis. Conditions: reference 21; cited from earlier work.
A short description of data set [1]: 4-HPR release from PLGA implants, tumor and sera levels (UPLC/UV). The format is in vivo, nude mice. The text has this:
Determination of 4-HPR tumor levels entailed recording tumor wet mass, addition of internal standard (acitretin) and RIPA lysis buffer, followed by homogenization, addition of acetonitrile and centrifugation. Acetretin percent recovery was compared to a RIPA buffer/acetonitrile extraction control solution spiked with equivalent amount of acetretin and 4-HPR. Sera preparation entailed addition of acetretin and acetonitrile, sonication, followed by centrifugation.
SCC2095sc cells [10^6 cells suspended in 100 μl Matrigel (Corning Life Sciences, Corning, N.Y.)] were subcutaneously injected in the flanks of 6 week old male nude mice (n=6 per treatment group). Tumor measurements were recorded daily with calipers (greatest length and greatest width) and final tumor volumes calculated via tumor volume V=(length×width)×½. Treatment groups consisted of: 1) control (PBS injections)+blank (no drug) PLGA implants, 2) 2-ME (1 μg/100 μl PBS, b.i.d.)+blank PLGA implant, 3) 4-HPR releasing PLGA implant+PBS injections, 4) TOC q.d. (0.3 μg/100 μl PBS)+PLGA blank implant, 5) 2-ME (1 μg/100 μl PBS, b.i.d.)+4-HPR releasing PLGA implant, 6) 2-ME (1 μg/100 μl PBS, b.i.d.)+TOC q.d. (0.3 μg/100 μl PBS)+blank PLGA implant, 7) TOC q.d. (0.3 μg/100 μl PBS)+4-HPR releasing PLGA implant, 8) 2-ME (1 μg/100 μl PBS, b.i.d.)+TOC q.d. (0.3 μg/100 μl PBS)+4-HPR releasing PLGA implant. By day 14 post injection, all mice had measurable tumors and treatment began on day 15. […] Pretreatment mean tumor volumes therefore varied among treatment groups. PLGA implants (via trocar) and injections were placed in the center of the tumor. At day 28 post OSCC xenograft placement final tumor measurements were obtained, the mice were euthanized and OSCC tumors along with lung, liver and sera were harvested for pharmacokinetic, histologic and IHC analyses (Ki-67, cleaved caspase-3 and involucrin). Image analyses of the nuclear stains (Ki-67 and cleaved caspase 3) were conducted using Image-Pro Plus 6.2 software (Media Cybernetics, Rockville, Md.).

In data set [2] the target is ATP binding sites of Pyk2 (Homo sapiens, UniProt Q14289). Conditions: cited from earlier work.
Chain of ATP binding sites of Pyk2 (Q14289 whole entry): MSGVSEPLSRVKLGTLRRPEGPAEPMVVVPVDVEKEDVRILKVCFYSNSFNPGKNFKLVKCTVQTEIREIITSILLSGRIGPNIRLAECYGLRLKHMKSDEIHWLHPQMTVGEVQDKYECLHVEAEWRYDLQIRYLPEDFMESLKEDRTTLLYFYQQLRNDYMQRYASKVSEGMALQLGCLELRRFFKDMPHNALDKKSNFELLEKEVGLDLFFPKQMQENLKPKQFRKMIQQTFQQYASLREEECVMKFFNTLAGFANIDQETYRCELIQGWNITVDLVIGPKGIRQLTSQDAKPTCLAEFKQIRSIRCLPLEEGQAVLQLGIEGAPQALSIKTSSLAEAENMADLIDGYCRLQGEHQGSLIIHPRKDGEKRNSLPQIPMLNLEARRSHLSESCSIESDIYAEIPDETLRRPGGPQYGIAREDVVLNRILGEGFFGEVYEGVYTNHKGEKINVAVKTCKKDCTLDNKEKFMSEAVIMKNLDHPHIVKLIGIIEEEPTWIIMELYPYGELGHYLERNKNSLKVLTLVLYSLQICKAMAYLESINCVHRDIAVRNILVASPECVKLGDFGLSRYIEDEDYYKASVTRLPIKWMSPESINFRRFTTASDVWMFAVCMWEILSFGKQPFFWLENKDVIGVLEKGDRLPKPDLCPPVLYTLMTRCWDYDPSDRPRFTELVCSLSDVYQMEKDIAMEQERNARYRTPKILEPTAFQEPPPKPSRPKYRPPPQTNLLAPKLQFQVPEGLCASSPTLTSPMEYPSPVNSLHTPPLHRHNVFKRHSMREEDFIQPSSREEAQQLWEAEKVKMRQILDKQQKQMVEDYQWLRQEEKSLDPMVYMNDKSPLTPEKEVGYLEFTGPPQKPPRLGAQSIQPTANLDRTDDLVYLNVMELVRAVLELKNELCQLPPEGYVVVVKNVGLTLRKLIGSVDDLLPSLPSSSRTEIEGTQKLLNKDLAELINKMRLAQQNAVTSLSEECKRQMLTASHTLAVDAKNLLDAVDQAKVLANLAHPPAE
The test system of a further data set is STAT3. Put plainly: STAT3 cytosolic phosphorylation and nuclear translocation, immunoblots of OSCC cell lines. The format is cell-based, human. The method, then:
FIGS. 2A, 2B, and 2C show the treatment effects of fenretinide (4-HPR, 5 μM), 2-methoxyestradiol (2-ME, 2.5 μM) and the STAT3 inhibitor LY5 (0.5 μM) on STAT3 phosphorylation and nuclear translocation. (A) (JSCC1 cells) (B) (JSCC2 cells) and (C) (JSCC3 cells) were evaluated. Cytosolic and nuclear proteins were harvested from sera deprived JSCC1 and JSCC2 cell lines following 24 h of treatment (5 μM 4-HPR, 2.5 μM 2-ME, or 0.5 μM LY5) or vehicle (0.1% DMSO) control. […] As the JSCC3 cells don't constitutively express pSTAT3, these cells underwent 24 h stimulation in base medium supplemented with 10 ng/mL of IL-6 or 5 ng/mL of TGF-α, with or without 4-HPE, 2-ME or LY5 treatment, followed by harvest. […] (n=3, p<0.05, Wilcoxon matched pairs signed rank test).
Dosing levels were determined by concurrent proliferation and viability studies in conjunction with literature values. The cells in every treatment group were then stimulated for 20 minutes with: vehicle (1 μl ddH2O), 50 ng/ml EGF, 50 ng/ml VEGF, or 50 ng/ml EGF+50 ng/ml VEGF, followed by standard immunoblotting and data normalization relative to GAPDH. […] Immunoblot images were captured (Li-Cor Odyssey imager) and analyzed (Li-Cor Image Studio, Version 4.0) to depict effects on treatment on phosphorylation relative to respective levels of GAPDH. […]

The next data set in a line: Fenretinide solubility. The format is physicochemical.

Converted amounts (≈) assume the structure as drawn. “Also recorded” adds a separate entry of the source. Where only a bound is given, the exact number is not on record here.

Data on one compound can be found in US11484591B2, “Chemoprevention using controlled-release formulations of anti-interleukin 6 agents, synthetic vitamin A analogues or metabolites, and estradiol metabolites” (OHIO STATE INNOVATION FOUNDATION, priority 2016, dated 2022).

For `CC1=C(/C=C/C(C)=C/C=C/C(C)=C/C(=O)Nc2ccc(O)cc2)C(C)(C)CCC1` [4-HPR, 4-hydroxy(phenyl)retinamide], the apoptosis-inducing concentration in the data set on apoptosis is 10 µM. Also, in data set [1] (4-HPR or its metabolites, any animals), the “detectable levels in the sera” value is reported as “absence of any detectable levels”. In addition, the concentration at 28 days post xenograft placement (treatment began on day 15) in data set [1] (male, nude, mouse, serum, all mice that received PLGA implants, below LLOQ) was below 50 ng/mL. In addition, the “binding to ATP binding site” value in data set [2] is listed as “binds with high affinity”. In the data set on STAT3 (JSCC1 and JSCC2 cells, 5 μM, 24 h), the “constitutive STAT3 phosphorylation and pSTAT3 nuclear translocation” value is on record as “suppressed; also recorded: significantly reduced”. Moreover, the “suppression of STAT3 activation and nuclear translocation relative to STAT3 inhibitor LY5” value in the data set with STAT3 (JSCC1 cells, 5 μM 4-HPR vs 0.5 μM LY5) is on record as “appreciably more effectively”. In addition, the water solubility result in the data set “Fenretinide solubility” is reported as “below HPLC detection limit”. This compound also came in with a solubility in the data set “Fenretinide solubility” (PBS+0.084% Tween 80, same as in bovine serum) of 21 µg/mL (≈ 53.6 µM).
